Here are results for 2 compounds from patent US20230085307A1, “PYRIDAZINONE COMPOUND AND HERBICIDE” (NISSAN CHEMICAL CORPORATION, priority 2019, published 2023).

Test [1] relates to persian speedwell. Briefly: Test Example 5: herbicidal effect by foliage application, plastic box (Table 20, symbol R). The class given is in vivo, Persian speedwell (Veronica persica). Particulars: foliage application, three weeks after application. The method in brief: (§1)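 Plants were sown into sterilized diluvial soil under about 1.5 cm cover and kept in a greenhouse at 25° C. to 30° C. Fourteen days on, foliage received an even spray of the diluted emulsion. Herbicidal or crop effect was judged three weeks afterwards.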

For test [2], the system named is lambsquarters. As to the kind of experiment: Test Example 5: herbicidal effect by foliage application, plastic box (Table 20, symbol O). In kind it is in vivo, lambsquarters (Chenopodium album). Particulars: foliage application, three weeks after application. The method in brief:
as §1

Test [3] concerns velvetleaf. Briefly: Test Example 5: herbicidal effect by foliage application, plastic box (Table 20, symbol M). In kind it is in vivo, velvetleaf (Abutilon theophrasti). Particulars: foliage application, three weeks after application. The method in brief:
as §1

In test [4] the test system is rice flat sedge. As to the kind of experiment: Test Example 3: herbicidal effect by foliage application, Wagner pot (Table 18, symbol E). In kind it is in vivo, rice flat sedge (Cyperus iria). The method in brief:
(§2)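 Plants were sown in alluvial soil held under 0.1–0.5 cm standing water and grown 14 days in a greenhouse at 25–30 °C. An emulsifiable formulation, water-diluted to the set dose, was then sprayed onto the foliage, and effects were scored three weeks later using previously defined criteria.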

Test [5] deals with blackgrass. Briefly: Test Example 5: herbicidal effect by foliage application, plastic box (Table 20, symbol J). The note with it: foliage application, three weeks after application. In kind it is in vivo, blackgrass (Alopecurus myosuroides). The method in brief: as §1
Test [6] has as its system windgrass. As to the kind of experiment: Test Example 5: herbicidal effect by foliage application, plastic box (Table 20, symbol L). Particulars: foliage application, three weeks after application. In kind it is in vivo, windgrass (Apera spica-venti). The method in brief:
as §1

For test [7], the system named is chickweed. Briefly: Test Example 5: herbicidal effect by foliage application, plastic box (Table 20, symbol P). The class given is in vivo, common chickweed (Stellaria media). The note with it: foliage application, three weeks after application. The method in brief:
as §1

The subject of test [8] is Japanese bulrush. As to the kind of experiment: Test Example 1: herbicidal activity, application before weed generation under submerged conditions (Table 16, symbol B). The class given is in vivo, Japanese bulrush (Schoenoplectus juncoides). The method in brief:
(§3)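 Submerged Wagner pots (alluvial soil, 4 cm water) sown with weed seeds and planted with 2.5-leaf rice seedlings; emulsifiable concentrate diluted in water applied to water surface on sowing day. Held in greenhouse at 25-30 °C; injury scored 0-5 by herbicidal rate after three weeks.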

Test [9] deals with green foxtail. Briefly: Test Example 5: herbicidal effect by foliage application, plastic box (Table 20, symbol G). The class given is in vivo, green foxtail (Setaria viridis). Particulars: foliage application, three weeks after application. The method in brief: as §1
For test [10], the system named is Italian ryegrass. As to the kind of experiment: Test Example 5: herbicidal effect by foliage application, plastic box (Table 20, symbol K). The note with it: foliage application, three weeks after application. In kind it is in vivo, Italian ryegrass (Lolium multiflorum). The method in brief:
as §1

For test [11], the system named is barnyard grass. Briefly: Test Example 5: herbicidal effect by foliage application, plastic box (Table 20, symbol H). The class given is in vivo, barnyard grass (Echinochloa crus-galli). Particulars: foliage application, three weeks after application. The method in brief: as §1
Test [12] deals with oval-leafed pondweed. As to the kind of experiment: Test Example 1: herbicidal activity, application before weed generation under submerged conditions (Table 16, symbol C). The class given is in vivo, oval-leafed pondweed (Monochoria vaginalis). The method in brief: as §3
Test [13] concerns southern crabgrass. As to the kind of experiment: Test Example 5: herbicidal effect by foliage application, plastic box (Table 20, symbol F). In kind it is in vivo, southern crabgrass (Digitaria ciliaris). Particulars: foliage application, three weeks after application. The method in brief: as §1
For test [14], the system named is late watergrass. Briefly: Test Example 1: herbicidal activity, application before weed generation under submerged conditions (Table 16, symbol A). In kind it is in vivo, late watergrass (Echinochloa oryzicola). The method in brief:
as §3

The subject of test [15] is wild oat. Briefly: Test Example 5: herbicidal effect by foliage application, plastic box (Table 20, symbol I). In kind it is in vivo, wild oat (Avena fatua). Particulars: foliage application, three weeks after application. The method in brief: as §1
The test system of test [16] is redroot pigweed. As to the kind of experiment: Test Example 5: herbicidal effect by foliage application, plastic box (Table 20, symbol N). The note with it: foliage application, three weeks after application. In kind it is in vivo, redroot pigweed (Amaranthus retroflexus). The method in brief: as §1
Test [17] concerns false cleavers. As to the kind of experiment: Test Example 5: herbicidal effect by foliage application, plastic box (Table 20, symbol Q). In kind it is in vivo, false cleavers (Galium spurium). The note with it: foliage application, three weeks after application. The method in brief: as §1
For test [18], the system named is barnyard grass. As to the kind of experiment: Test Example 3: herbicidal effect by foliage application, Wagner pot (Table 18, symbol H). The class given is in vivo, barnyard grass (Echinochloa crus-galli). The method in brief:
as §2

Test [19] deals with Chinese sprangletop. Briefly: Test Example 3: herbicidal effect by foliage application, Wagner pot (Table 18, symbol D). In kind it is in vivo, chinese sprangletop (Leptochloa chinensis). The method in brief: as §2
[20] abbreviates: amount of applied herbicide 45 g/ha.
The mark [21] stands for this setting: amount of applied herbicide 49 g/ha.

Take `Cc1nn(C)c(=O)c(-c2c(-c3ccccc3OCC3CC3(F)F)sc3ccccc23)c1O` (centres unmarked) [1-120]: in [1] (AAH 320 g/ha), the “R: persian speedwell, herbicidal effect” value is 5 (Herbicidal rate of 90% or more (almost completely withered)). Besides, the “O: lambsquarters, herbicidal effect” value in test [2] (AAH 320 g/ha) is 0 (Herbicidal rate of 5% or less (almost no effect)). The “M: velvetleaf, herbicidal effect” value in test [3] (AAH 320 g/ha) was 0 (Herbicidal rate of 5% or less (almost no effect)). The “herbicidal effect on E (rice flat sedge), rating 0-5” value in test [4] (320 g/ha) is 2 (Herbicidal rate of 20% or more and less than 40%). Moreover, the “J: blackgrass, herbicidal effect” value in test [5] (AAH 320 g/ha) is 2 (Herbicidal rate of 20% or more and less than 40%). Besides, in test [6] (AAH 320 g/ha), the “L: windgrass, herbicidal effect” value is given as 0 (Herbicidal rate of 5% or less (almost no effect)). The “P: chickweed, herbicidal effect” value in test [7] (AAH 320 g/ha) is 4 (Herbicidal rate of 70% or more and less than 90%). Also, the “Herbicidal effect on B: Japanese bulrush (grade 0-5)” value in test [8] (320 g/ha applied herbicide) was 0 (Herbicidal rate of 5% or less (almost no effect)). Also, the “G: green foxtail, herbicidal effect” value in [9] (AAH 320 g/ha) is 0 (Herbicidal rate of 5% or less (almost no effect)). Besides, the “K: Italian ryegrass, herbicidal effect” value in test [10] (AAH 320 g/ha) was 0 (Herbicidal rate of 5% or less (almost no effect)). For the same compound, in test [11] (AAH 320 g/ha), the “H: barnyard grass, herbicidal effect” value is given as 0 (Herbicidal rate of 5% or less (almost no effect)). For the same compound, the “Herbicidal effect on C: oval-leafed pondweed (grade 0-5)” value in test [12] (320 g/ha applied herbicide) is on record as 0 (Herbicidal rate of 5% or less (almost no effect)). The “F: southern crabgrass, herbicidal effect” value in test [13] (AAH 320 g/ha) is listed as 0 (Herbicidal rate of 5% or less (almost no effect)). Besides, the “Herbicidal effect on A: late watergrass (grade 0-5)” value in test [14] (320 g/ha applied herbicide) is 3 (Herbicidal rate of 40% or more and less than 70%). Further, the “I: wild oat, herbicidal effect” value in [15] (AAH 320 g/ha) is on record as 0 (Herbicidal rate of 5% or less (almost no effect)). In addition, the “N: redroot pigweed, herbicidal effect” value in [16] (AAH 320 g/ha) is 0 (Herbicidal rate of 5% or less (almost no effect)). Further, the “Q: false cleavers, herbicidal effect” value in test [17] (AAH 320 g/ha) was 3 (Herbicidal rate of 40% or more and less than 70%). Besides, the “herbicidal effect on H (barnyard grass), rating 0-5” value in test [18] (320 g/ha) was 3 (Herbicidal rate of 40% or more and less than 70%). In test [19] (320 g/ha), the “herbicidal effect on D (Chinese sprangletop), rating 0-5” value was 0 (Herbicidal rate of 5% or less (almost no effect)).
Take `CCCC(=O)Oc1c(C)nn(C)c(=O)c1-c1c(-c2ccc(C(C)=NOC)cc2)sc2cc(F)ccc12` [3-018]: in test [1] (45 g/ha), the “R: persian speedwell, herbicidal effect grade” value is 3 (Herbicidal rate of 40% or more and less than 70%). Moreover, in test [2] (45 g/ha), the “O: lambsquarters, herbicidal effect grade” value was 1 (Herbicidal rate of 5% or more and less than 20%). The “M: velvetleaf, herbicidal effect grade” value in [3] (45 g/ha) was 0 (Herbicidal rate of 5% or less (almost no effect)). For the same compound, the “herbicidal effect on E: rice flat sedge” value in test [4] (setting [20]) is 2 (Herbicidal rate of 20% or more and less than 40%). Besides, in [5] (45 g/ha), the “J: blackgrass, herbicidal effect grade” value is 0 (Herbicidal rate of 5% or less (almost no effect)). The “L: windgrass, herbicidal effect grade” value in test [6] (45 g/ha) is recorded as 0 (Herbicidal rate of 5% or less (almost no effect)). Besides, the “P: chickweed, herbicidal effect grade” value in test [7] (45 g/ha) is 1 (Herbicidal rate of 5% or more and less than 20%). Moreover, in test [8] (setting [21]), the “Herbicidal effect, B: Japanese bulrush” value was 2 (Herbicidal rate of 20% or more and less than 40%). In [9] (45 g/ha), the “G: green foxtail, herbicidal effect grade” value is 0 (Herbicidal rate of 5% or less (almost no effect)). Moreover, the “K: Italian ryegrass, herbicidal effect grade” value in test [10] (45 g/ha) is given as 0 (Herbicidal rate of 5% or less (almost no effect)). Besides, the “H: barnyard grass, herbicidal effect grade” value in test [11] (45 g/ha) was 0 (Herbicidal rate of 5% or less (almost no effect)). Further, the “Herbicidal effect, C: oval-leafed pondweed” value in test [12] (setting [21]) was 0 (Herbicidal rate of 5% or less (almost no effect)). Further, the “F: southern crabgrass, herbicidal effect grade” value in [13] (45 g/ha) is on record as 0 (Herbicidal rate of 5% or less (almost no effect)). In addition, in [14] (setting [21]), the “Herbicidal effect, A: late watergrass” value was 3 (Herbicidal rate of 40% or more and less than 70%). For the same compound, the “I: wild oat, herbicidal effect grade” value in test [15] (45 g/ha) is 0 (Herbicidal rate of 5% or less (almost no effect)). Also, the “N: redroot pigweed, herbicidal effect grade” value in test [16] (45 g/ha) is 3 (Herbicidal rate of 40% or more and less than 70%). Also, the “Q: false cleavers, herbicidal effect grade” value in [17] (45 g/ha) is 0 (Herbicidal rate of 5% or less (almost no effect)). In addition, the “herbicidal effect on H: barnyard grass” value in test [18] (setting [20]) was 3 (Herbicidal rate of 40% or more and less than 70%). For the same compound, the “herbicidal effect on D: Chinese sprangletop” value in test [19] (setting [20]) is on record as 0 (Herbicidal rate of 5% or less (almost no effect)).
